Measured values: patent US7238682B1, “Methods and compositions for degradation and/or inhibition of HER-family tyrosine kinases” (Sloan-Kettering Institute for Cancer Research, priority 1999, dated 2007)
Where two headings read alike, the source gives them in different places.

Legend:
Type in all cases: cell-based, human
[1] = test system: HER2; experiment: Induction of HER2 degradation in MCF-7 cells (immunoblotting); conditions: for IC50: MCF-7 cells, 24-hr treatment, amount of drug needed to degrade 50% of the protein, average of three experiments, read-out: IC50 (HER-2)
Experimental: (§1) The human breast cancer cell lines MCF-7 and SKBR-3 were obtained from ATCC (Rockville, Md.), and maintained in DME/F12 (1:1) supplemented with 10% heat-inactivated fetal bovine serum (Gemini Bioproducts), 2 mM glutamine, and 50 units/ml each of penicillin and streptomycin, in a humidified 5% CO2/air atmosphere at 37° C.
(§2) Polyclonal antibodies against HER2 (c-18), Raf-1 (c-12), and P13 kinase (p85) (Z-8) were purchased from Santa Cruz Biotechnology, Inc. A monoclonal antibody against estrogen receptor (clone H-151) was obtained from StressGen Biotechnology Corp. A polyclonal antibody against the β-subunit of IGF-I receptor was kindly provided by Dr. L-H, Wang (Mt. Sinai Medical Center, New York).
(§3) After exposure, cells were washed twice with ice-cold phosphate-buffered saline (PBS), collected by scraping and transferred into microcentrifuge tubes. For immunoblotting (HER2, Raf-1, ER), cells were lysed with SDS lysis buffer (50 mM Tris-HCl, pH 7.5, 2% SDS, 10% glycerol, and 1 mM DTT), boiled for 10 min, and sonicated briefly; for immunoprecipitation (IGF-IR), cells were lysed with NP40 lysis buffer (50 mM Tris-HCl, pH 7.5, 1% Nonidet P-40, 150 mM NaCl, 1 mM Na3VO4, 40 mM NaF, 1 mM phenylmethylsulfonyl fluoride (PMSF) and 10 μg/ml each of aprotinin, leupeptin and soybean trypsin inhibitor) for 20 min at 4° C. Cell lysates were cleared by centrifuging at 14,000×g for 15 min at 4° C. in a microcentrifuge; the supernatants were collected as the experimental samples. Protein concentration in each sample was determined using the BCA kit (Pierce) according to the manufacture's instructions. For detecting IGF-IR, samples were immunoprecipitated with anti-IGF-IR antibody. Immunocomplexes were collected on protein A-Sepharose beads (Pharmacia), washed three times with the lysis buffer. Samples were subjected to SDS-PAGE, electrotransferred to nitrocellulose membranes, detected using the ECL kit (Amersham) according to the manufacturer's protocol, and quantitated using the Gel Doc 1000 (Bio-Rad).

[2] = test system: Raf-1; experiment: Induction of Raf-1 degradation in MCF-7 cells (immunoblotting); conditions: for IC50: MCF-7 cells, 24-hr treatment, amount of drug needed to degrade 50% of the protein, average of three experiments
Experimental: as §1, §2, §3

[3] = test system: MCF-7 cells; experiment: MCF-7 cell growth inhibition (cell counting); conditions: MCF-7 cells treated for four days, average of three experiments, read-out: IC50 (growth inh.)
Experimental: as §1
For cell growth experiments, cells were placed in 6-well tissue-culture plates (Corning) at 20,000 cells/well. Two days after plating, cells were treated with different concentrations of drugs or the vehicle DMSO (0.1%). MCF-7 cells were treated for four days; medium with the appropriate drug or vehicle was changed every 2 days; cells were trypsinized, collected and counted on a Coulter counter; IC50 for cell growth is designated as the amount of each drug needed to inhibit MCF-7 growth by 50% compared to the control vehicle.

Compound | IC50 [1] [µM] | IC50 [2] [µM] | IC50 ([3]; Homo sapiens, MCF7, 96 h) [µM] | Activity against HER2 (in words) ([1]; degradation in MCF-7 cells) | Selectivity / specificity for HER-2 over Raf-1 ([1]; degradation in MCF-7 cells, compared to GM) | Activity against Raf-1 (in words) ([2]; degradation in MCF-7 cells) | IC50 [3] [µM]
COC1C=CC=C(C)C(=O)NC2=CC(=O)C(NCCCCCCCCCNC3=C4CC(C)CC(OC)C(O)C(C)C=C(C)C(OC(N)=O)CC(OC)C=CC=C(C)C(=O)NC(=CC3=O)C4=O)=C(CC(C)CC(OC)C(O)C(C)C=C(C)C(OC(N)=O)C1)C2=O (stereo not drawn) [9 O———O] | 0.5 | 3.8 | 0.7 | – | – | – | –
COC1C=CC=C(C)C(=O)NC2=CC(=O)C(NCCCCCCCCCCCCNC3=C4CC(C)CC(OC)C(O)C(C)C=C(C)C(OC(N)=O)CC(OC)C=CC=C(C)C(=O)NC(=CC3=O)C4=O)=C(CC(C)CC(OC)C(O)C(C)C=C(C)C(OC(N)=O)C1)C2=O (stereo not drawn) [12 O———O] | 0.75 | 3.5 | 0.7 | – | – | – | –
COC1C=CC=C(C)C(=O)NC2=CC(=O)C(NCCCCN)=C(CC(C)CC(OC)C(O)C(C)C=C(C)C1OC(N)=O)C2=O (stereo not drawn) [ButylaminoGM] | 0.08 | 0.35 | – | modestly weaker than GM | not selective | modestly weaker than GM | 0.6
COC1=C2C[C@@H](C)C[C@H](OC)[C@H](O)[C@@H](C)/C=C(\C)[C@H](OC(N)=O)[C@@H](OC)/C=C\C=C(/C)C(=O)NC(=CC1=O)C2=O [GM, Geldanamycin, reference compound] | 0.045 | 0.2 | 0.025 | – | – | – | –
COC1C=CC=C(C)C(=O)NC2=CC(=O)C(NCCCCCCCNC3=C4CC(C)CC(OC)C(O)C(C)C=C(C)C(OC(N)=O)CC(OC)C=CC=C(C)C(=O)NC(=CC3=O)C4=O)=C(CC(C)CC(OC)C(O)C(C)C=C(C)C(OC(N)=O)C1)C2=O (stereo not drawn) [GMD-7c] | 0.07 | 0.5 | 0.6 | – | – | – | –
